Results published in US4956463A, “Pyrimidone compound and pharmaceutically acceptable salts thereof” (Ikeda Mohando Company, Ltd., priority 1987, dated 1990).
Read-outs that look alike come from different tables or passages of the source.

Legend:
[1] = test system: Gastric Acid Secretion Accelerated by Histamine in Pylorus-ligated Rats; assay: Inhibitory Effect on Gastric Acid Secretion by Histamine in Pylorus-ligated Rats; assay type: in vivo, male Wister rat; conditions: dose 2 mg/kg s.c.; histamine 3 mg/kg s.c. 30 min later; average of 5 measurements; ** P < 0.01 vs control group (all values marked **)
Description: A male Wister rat having a body weight of about 160 g and which had not fed for 24 hours was anesthetized by an intraperitonea dose of 1.2 g/kg of urethane. After ligating of pylorus and esophagus, gaster anterior was incised and fitted with a double polyethylene wall cannula. The wall of the stomach was rinsed with saline (5 ml each) at 30 minutes intervals, and the amount of gastric acid present in the rinsing solution were determined by titration technique.
The basal amount of secreted gastric acid was initially measured three times, then 2 mg/kg of each of compounds of the invention was administered subcutaneously and 3 mg/kg of histamine was subcutaneously administered after the lapse of an additional 30 minutes.
The quantity of gastric acid secreted after the operation was measured continuously for 3 hours. Within that measurement interval, three time points at which the increase in acid secretion reached a maximum level were selected, and the average quantity of gastric acid secreted at those time points was taken as the increase in acid secretion, which was compared with the increase in acid secretion of the control group to calculate the percent inhibition for secretion of gastric acid. [formula]

Ethanol-Induced Ulcer = assay: Inhibitory Effect on Ethanol-Induced Ulcer; assay type: in vivo, male Wister rats; conditions: for inhibition in vivo at 30 mg/kg: Rattus norvegicus, po, 1 h, read-out: I.R. of Ethanol-Induced Ulcer
Description: (B) Inhibitory Effect of the Compounds of the Present Invention on Ethanol-Induced Ulcer
This test was performed in the manner similar to the method of Robert A. (Gastroenterology, 1975, Vol. 69, pp. 1045-1047). 30 mg/kg of the compound of this invention was orally administered to male Wister rats having a body weight of about 160 g after 24 hours fasting and after additional 30 minutes, 1 ml/animal of 100% ethanol was orally administered One hour after, the stomach was dissected out and was fixed with formalin, Then, the length of the hemorrhagic ulcers generated at the front portion of the stomach was measured by means of a microscope and these were defined as the coefficient of ulcer (U.C.). [formula]
The results obtained are listed in Table II in which the values found are expressed in the average of 5 measurements.

[2] = 30 mg/kg p.o., 100% ethanol 1 ml/animal p.o. 30 min later, average of 5 measurements, ** P < 0.01 vs control group (Ex. 18 and Cimetidine unmarked)

| SMILES | Gastric Acid Secretion in Rats, Rate of inhibition [1] | inhibition in vivo at 30 mg/kg (Ethanol-Induced Ulcer; [2]) | inhibition in vivo at 30 mg/kg (Ethanol-Induced Ulcer) | inhibitory effect for damages with ethanol (Ethanol-Induced Ulcer; in words, as shown in Table II) |
| --- | --- | --- | --- | --- |
| Cc1[nH]c(NC/C=C\COc2cc(CN3CCCCC3)ccn2)nc(=O)c1C [Ex. 1, 5,6-Dimethyl-2-[4-<4-(1-piperidinomethyl)-pyridyl-2-oxy>-cis-2-butenylamino]-4-(1H)-pyrimidone] | 59% | 65% |  |  |
| CCCCCCCc1c(C)[nH]c(NC/C=C\COc2cccc(CN3CCCCC3)c2)nc1=O [Ex. 7] |  | 61% |  |  |
| CCCCCCCCCCCCc1c(C)[nH]c(NC/C=C\COc2cccc(CN3CCCCC3)c2)nc1=O [Ex. 10, 5-Dodecyl-6-methyl-2-[4-<3-(1-piperidinomethyl)-phenoxy>-cis-2-butenylamino]-4-(1H)-pyrimidone] | 36% | 73% |  |  |
| COc1ccc(Cc2c(C)[nH]c(NC/C=C\COc3cccc(CN4CCCCC4)c3)nc2=O)cc1 [Ex. 17, 5-(p-methoxybenzyl)-6-methyl-2-[4-<3-(1-piperidino-methyl)-phenoxy>-cis-2-butenylamino]-4-(1H)-pyrimidone] |  | 78% |  |  |
| Cc1[nH]c(NC/C=C\COc2cc(CN3CCCCC3)ccn2)nc(=O)c1Cc1ccccc1 [Ex. 13] |  | 56% |  |  |
| CCCc1[nH]c(NC/C=C\COc2cccc(CN3CCCCC3)c2)nc(=O)c1Cc1ccc2c(c1)OCO2 [Ex. 18] |  | 45% |  |  |
| Cc1[nH]c(NC/C=C\COc2cccc(CN3CCCCC3)c2)nc(=O)c1Cc1ccccc1 [Ex. 14, 5-Benzyl-6-methyl-2-[4-<3-(I-piperidinomethyl)-phenoxy>-cis-2-butenylamino]-4-(1H)-pyrimidone] |  | 87% |  |  |
| Cc1[nH]c(NC/C=C\COc2cc(CN3CCCCC3)ccn2)nc(=O)c1CCc1ccccc1 [Ex. 11, 5-Phenethyl-6-methyl-2-[4-<4-(1-piperidinomethyl)-pyridyl-2-oxy>-cis-2-butenylamino]-4-(1H)-pyrimidone] | 47% | 79% |  |  |
| Cc1[nH]c(NC/C=C\COc2cc(CN3CCCCC3)ccn2)nc(=O)c1Cc1ccc2c(c1)OCO2 [Ex. 16, 5-(3,4-methylenedioxy)-benzyl-6-methyl-2-[4-<4-(1-piperidinomethyl)-pyridyl-2-oxy>-cis-2-butenylamino]-4-(1H)-pyrimidone] |  | 58% |  |  |
| Cc1[nH]c(NC/C=C\COc2cccc(CN3CCCCC3)c2)nc(=O)c1C [Ex. 3, 5,6-Dimethyl-2-[4-<3-(1-piperidinomethyl)-phenoxy>-cis-2-butenylamino]-4-(1H)-pyrimidone] | 70% | 80% |  |  |
| CN/C(=N/CCSCc1nc[nH]c1C)NC#N [Cimetidine, reference compound] | 70% |  | -22.4% | not observed |
